Structures can show the parent of a compound that is named as a salt. Where two headings read alike, the source gives them in different places.
Columns and labels:
[1] = test system: SARS-CoV-2 (BetaCov/Belgium/GHB-03021/2020); assay: microbe, parasite or virus in culture; type: cell-based; settings: for Emax: Severe acute respiratory syndrome coronavirus 2, 120 h, read-out: Maximum confluence reached (%)
SARS-CoV-2 [2] = assay: microbe, parasite or virus in culture; settings: Severe acute respiratory syndrome coronavirus 2, Caco-2, 48 h; for inhibition at 10 µM: read-out: % Inh. (% Inhibition of SARS-CoV-2)
[3] = Compound cytotoxicity against CaCo-2 cells at 48 hours; type: cell-based, Human; settings: human, CaCo-2 cells
Procedure: (§1) The cytotoxicity of the profiled compounds towards CaCo-2 cells at 48 hours was assessed. […] After 48 hours, cytotoxicity was evaluated using both digital phase contrast readout as described above and ATP determination (Cell titre-glo, Promega Corp).

SARS-CoV-2 [4] = settings: for % Inh. (% Inhibition of SARS-CoV-2): 10 µM
CaCo-2 cells = assay: Compound cytotoxicity against CaCo-2 cells at 48 hours; type: cell-based, Human; settings: read-out: CC50: concentration of 50% cytotoxicity; Table 5, further results of Examples 1 and 2; mean ± spread
Procedure: as §1

[5] = Table 5, further results of Examples 1 and 2
[6] = read-out: IC50: concentration of 50% inhibition of virus infection, Table 5, further results of Examples 1 and 2, […]
[7] = Table 5, further results of Examples 1 and 2, mean ± spread

## Cc1ccc(NC(=O)c2ccc(CN3CCN(C)CC3)cc2)cc1Nc1nc(-c2cccnc2)cs1 [Masitinib (AB1010), Masitinib]
[1]
  Emax: 57.1%
SARS-CoV-2 [2]
  inhibition at 10 µM: 108%

## CC[C@@H](C(=O)[C@@H](C)[C@@H](O)[C@H](C)[C@@H]1O[C@@H]([C@@H](CC)C(=O)O)CC[C@@H]1C)[C@H]1O[C@]2(C=C[C@@H](O)[C@]3(CC[C@@](C)([C@H]4CC[C@](O)(CC)[C@H](C)O4)O3)O2)[C@H](C)C[C@@H]1C [Salinomycin (Procoxacin), Salinomycin]
[1]
  Emax: 34.4%
SARS-CoV-2 [2]
  inhibition at 10 µM: 90.2%

## CN(C)C(=O)COC(=O)Cc1ccc(OC(=O)c2ccc(NC(=N)N)cc2)cc1 [Camostat Mesilate (FOY-305), Camostat Mesilate]
[3]; comparative experiments, 48 hours
  CC50 at 48 h: > 20 µM
SARS-CoV-2 [4]; comparative experiments, Examples 1 and 2
  % Inh (% inhibition of virus infection): 86.9%

## Cn1cc(-c2ccncc2)c(-c2ccc(OCc3ccc4ccccc4n3)cc2)n1 [PF-2545920]
SARS-CoV-2 [4]
  % Inh. (% Inhibition of SARS-CoV-2): 67.8%
[1]
  Maximum confluence reached (%): 36.73%

## COc1cc2ncnc(Nc3cccc(Br)c3)c2cc1OC.Cl [PD153035 (Hydrochloride)]
SARS-CoV-2 [4]
  % Inh. (% Inhibition of SARS-CoV-2): 97.2%
[1]
  Maximum confluence reached (%): 54.45%

## Cc1nn(C)c2nc(NNC(=O)Nc3cc(Cl)nc(Cl)c3)cc(C(C)C)c12 [JTE-013]
CaCo-2 cells
  CC50: 16.4 ± 0.42 µM
SARS-CoV-2 [4]
  IC50: 3.66 µM
  pIC50: 5.44
  % Inh. (% Inhibition of SARS-CoV-2): 105.9%
SARS-CoV-2 [4]; [5]
  pIC50: -log10 of IC50: 5.22
SARS-CoV-2 [4]; [6]
  IC50: 5.97 ± 0.15 µM

## C[CH2][Hg][S]c1ccccc1C(=O)[O-].[Na+] [THIMEROSAL]
CaCo-2 cells
  CC50: 13.5 ± 1.23 µM
SARS-CoV-2 [4]
  IC50: 1.77 µM
  pIC50: 5.75
  pIC50: -log10 of IC50: 5.77
  % Inh. (% Inhibition of SARS-CoV-2): 79.4%
SARS-CoV-2 [4]; read-out: IC50: concentration of 50% inhibition of virus infection
  IC50: 1.69 ± 0.13 µM

## C/C(=N\NC(=S)N1CCC1)c1ccccn1 [NSC319726]
CaCo-2 cells
  CC50: < 0.02 µM
SARS-CoV-2 [4]
  pIC50: 8.00
  % Inh. (% Inhibition of SARS-CoV-2): 104.2%
SARS-CoV-2 [4]; [5]
  pIC50: -log10 of IC50: > 7.70
SARS-CoV-2 [4]; [6]
  IC50: < 0.02 µM

## CCCc1c(-c2ccc(O)cc2)nn(-c2ccc(O)cc2)c1-c1ccc(O)cc1 [PPT]
SARS-CoV-2 [4]
  % Inh. (% Inhibition of SARS-CoV-2): 71.1%
[1]
  Maximum confluence reached (%): 48.2%
[1]; read-out: IC50
  IC50: 8.3 µM

## Cn1cc(-c2ccc3c(c2)CCN3C(=O)Cc2cccc(C(F)(F)F)c2)c2c(N)ncnc21 [GSK2606414]
CaCo-2 cells
  CC50: 70.4 ± 15.3 µM
SARS-CoV-2 [4]
  IC50: 0.2 µM
  pIC50: 6.70
  % Inh. (% Inhibition of SARS-CoV-2): 109.9%
SARS-CoV-2 [4]; [5]
  pIC50: -log10 of IC50: 6.60
SARS-CoV-2 [4]; [6]
  IC50: 0.25 ± 0.06 µM

## Cl.Nc1nc(NCC2CCC(CNS(=O)(=O)c3cccc4ccccc34)CC2)nc2ccccc12 (stereo not shown) [CGP-71683]
SARS-CoV-2 [4]
  % Inh. (% Inhibition of SARS-CoV-2): 102.5%
[1]
  Maximum confluence reached (%): 39.25%

## Cc1cccc2c1CC[C@H](CN1CCC(c3c(Cl)cccc3Cl)CC1)C[C@@H]2O [SB-612111]
CaCo-2 cells
  CC50: 3.67 ± 3.21 µM
SARS-CoV-2 [4]
  % Inh. (% Inhibition of SARS-CoV-2): 146.6%
SARS-CoV-2 [4]; [5]
  pIC50: -log10 of IC50: 6.11
SARS-CoV-2 [4]; [6]
  IC50: 0.77 ± 0.29 µM

## Nc1nccc(-c2c(-c3ccc(F)cc3)ncn2C2CCCCC2)n1 [PF-670462]
CaCo-2 cells
  CC50: 8.24 ± 7.87 µM
SARS-CoV-2 [4]
  % Inh. (% Inhibition of SARS-CoV-2): 111.6%

## CC(C)(C)c1ccc(/C=C/C(=O)Nc2ccc3c(c2)OCCO3)cc1 [AMG-9810]
CaCo-2 cells
  CC50: 14.2 ± 17.9 µM
SARS-CoV-2 [4]
  % Inh. (% Inhibition of SARS-CoV-2): 93.7%

## Cc1cc(C)c(Nc2ccnc(Nc3ccc(C#N)cc3)n2)c(C)c1 [Dapivirine (TMC120), Dapivirine]
[3]; [7]
  CC50 at 48 h: 5 ± 0.07 µM
SARS-CoV-2 [2]
  inhibition at 10 µM: 108%

## CC(=O)[C@]1(O)Cc2c(O)c3c(c(O)c2[C@@H](O[C@H]2C[C@H](N)[C@H](O)[C@H](C)O2)C1)C(=O)c1ccccc1C3=O [Idarubicin HCl]
[1]
  Emax: 92.6%
SARS-CoV-2 [2]
  IC50: 25 µM
  inhibition at 10 µM: 86.6%
SARS-CoV-2 [2]; read-out: pIC50 (converted)
  IC50: 25.1 µM

## O=C(O)Cc1cccc(OCCCN(Cc2cccc(C(F)(F)F)c2Cl)CC(c2ccccc2)c2ccccc2)c1 [GW-3965]
[1]
  Emax: 38%
SARS-CoV-2 [2]
  inhibition at 10 µM: 91.4%

## O=C(Nc1nc(-c2cc(Cl)cs2)c(N2CCN(C3CCCCC3)CC2)s1)c1cnc(N2CCC(C(=O)O)CC2)c(Cl)c1 [Avatrombopag]
[3]; [7]
  CC50 at 48 h: 20.9 ± 29.5 µM
SARS-CoV-2 [2]
  IC50: 7.17 µM
  inhibition at 10 µM: 95.9%
SARS-CoV-2 [2]; read-out: pIC50 (converted)
  IC50: 7.24 µM

## CNC(=O)c1ccc(C)c(-n2c(C)cc(OCc3ccc(F)cc3F)c(Br)c2=O)c1 [PH-797804]
[3]; [7]
  CC50 at 48 h: 20 ± 3.1 µM
SARS-CoV-2 [2]
  IC50: 20.7 µM
  inhibition at 10 µM: 81.5%
SARS-CoV-2 [2]; read-out: pIC50 (converted)
  IC50: 20.4 µM

## Clc1ccc(Nc2nnc(Cc3ccncc3)c3ccccc23)cc1 [vatalanib]
[3]; [7]
  CC50 at 48 h: 64.2 ± 57.4 µM
SARS-CoV-2 [2]
  IC50: 24.4 µM
  inhibition at 10 µM: 85.9%
SARS-CoV-2 [2]; read-out: pIC50 (converted)
  IC50: 24.5 µM

## CNC(=O)c1cc(Oc2ccc(NC(=O)Nc3ccc(Cl)c(C(F)(F)F)c3)cc2)ccn1 [Sorafenib Tosylate]
[3]; [7]
  CC50 at 48 h: 1.17 ± 0.43 µM
SARS-CoV-2 [2]
  IC50: 1.21 µM
  inhibition at 10 µM: 78.7%
SARS-CoV-2 [2]; read-out: pIC50 (converted)
  IC50: 1.2 µM

Source: patent publication US20230126310A1 (priority 2020, published 2023)
